From patent US12570655B2, “Cysteine covalent modifiers of AKT1 and uses thereof” (Terremoto Biosciences, Inc., priority 2023, dated 2026)
Where two headings read alike, the source gives them in different places.

Tests used:
Assay type in all cases: cell-based
[1] = target: T1, AKT2 (Homo sapiens, UniProt P31751); assay: Live cell AKT2 target engagement by NanoBRET competitive probe displacement; conditions: HEK293 cells transfected with kinase-NanoLuciferase fusion, 2 h at 37° C.
T1 construct: expressed in transfected cells; host or cells: HEK293
Outline: (§1)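 Live-cell competitive tracer displacement in HEK293 expressing NanoLuciferase-tagged kinase. Compound and ATP-competitive tracer (~EC50) are co-incubated 2 h at 37 °C; BRET (E600/E460) gives IC50.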

[2] = target: T2, AKT1 WT (Homo sapiens, UniProt P31749); assay: Live cell AKT1 WT target engagement by NanoBRET competitive probe displacement; conditions: HEK293 cells transfected with kinase-NanoLuciferase fusion, 2 h at 37° C.
T2 construct: expressed in transfected cells; host or cells: HEK293
Outline: as §1

[3] = test system: LAPC4 prostate cancer cells; assay: Antiproliferative effects in LAPC4 cells (CellTiter Glo); conditions: LAPC4 cells (AKT1 E17K allele), read-out: LAPC4 proliferation IC50
Outline: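 Cells grown in IMDM supplemented with 12% FBS plus 1% P/S were treated for 72 h with DMSO-dissolved compounds. ATP-based luminescence was fitted to a log(inhibitor) versus response Hill model, giving IC50.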

[4] = target: T3, AKT1 E17K (Homo sapiens, UniProt P31749, E17K); assay: Live cell AKT1 E17K target engagement by NanoBRET competitive probe displacement; conditions: HEK293 cells transfected with kinase-NanoLuciferase fusion, 2 h at 37° C.
T3 construct: expressed in transfected cells; host or cells: HEK293
Outline: as §1

T2 sequence (P31749 whole entry, the tested form may be a part): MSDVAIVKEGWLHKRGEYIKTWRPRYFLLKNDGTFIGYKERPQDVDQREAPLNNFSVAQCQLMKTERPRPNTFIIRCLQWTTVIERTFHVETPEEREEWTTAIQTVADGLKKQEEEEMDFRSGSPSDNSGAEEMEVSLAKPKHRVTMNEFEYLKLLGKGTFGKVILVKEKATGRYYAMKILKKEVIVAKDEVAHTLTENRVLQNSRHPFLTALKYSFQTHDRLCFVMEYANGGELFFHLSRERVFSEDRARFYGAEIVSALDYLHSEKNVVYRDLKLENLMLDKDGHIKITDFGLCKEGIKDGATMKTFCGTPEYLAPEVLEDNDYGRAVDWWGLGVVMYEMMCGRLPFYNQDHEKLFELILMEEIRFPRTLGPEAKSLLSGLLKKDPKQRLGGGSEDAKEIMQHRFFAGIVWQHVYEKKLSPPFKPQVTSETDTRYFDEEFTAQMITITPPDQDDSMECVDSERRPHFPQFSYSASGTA
T3 sequence (P31749 whole entry E17K, the tested form may be a part): as the sequence (P31749 whole entry, the tested form may be a part) above, with E17K counted along it
T1 sequence (P31751 whole entry, the tested form may be a part): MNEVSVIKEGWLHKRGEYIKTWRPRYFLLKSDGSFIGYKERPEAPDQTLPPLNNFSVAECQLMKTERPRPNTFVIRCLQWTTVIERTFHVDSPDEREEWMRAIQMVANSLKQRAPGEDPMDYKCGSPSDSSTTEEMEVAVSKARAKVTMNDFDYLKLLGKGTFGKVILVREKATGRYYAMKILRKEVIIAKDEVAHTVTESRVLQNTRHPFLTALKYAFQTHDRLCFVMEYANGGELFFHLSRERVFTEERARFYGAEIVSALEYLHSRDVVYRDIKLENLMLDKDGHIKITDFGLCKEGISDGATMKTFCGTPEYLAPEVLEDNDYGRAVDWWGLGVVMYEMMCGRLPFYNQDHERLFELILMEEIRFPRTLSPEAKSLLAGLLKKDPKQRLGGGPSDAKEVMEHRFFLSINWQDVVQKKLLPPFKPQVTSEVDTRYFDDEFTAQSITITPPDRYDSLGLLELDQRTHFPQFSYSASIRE

Row | Structure (SMILES) | IC50 [1] | IC50 [2] | IC50 ([3]; Homo sapiens, LAPC4, 72 h) | IC50 [4] | IC50 ([3]; 72 h)
1 | C=CC(=O)N1CCc2cccc(C(=O)N[C@H]3CCc4cc(-n5c(-c6cccnc6N)nc6ccc(-n7cccn7)nc65)ccc43)c21 [Example 10, N-[(1S)-5-[2-(2-aminopyridin-3-yl)-5-(pyrazol-1-yl)imidazo[4,5-b]pyridin-3-yl]-2,3-dihydro-1H-inden-1-yl]1-(prop-2-enoyl)-2,3-dihydroindole-7-carboxamide] | 1470 nM | 121 nM | 1860 nM | > 1000 nM | –
2 | C=CC(=O)N1CCC(N[C@@H]2c3ccc(-n4c(-c5cccnc5N)nc5ccc(-n6ccc(OC)n6)nc54)cc3CC2F)CC1 (single isomer, unassigned) [Example 287, 1-(4-(((1R,2*)-5-(2-(2-aminopyridin-3-yl)-5-(3-methoxy-1H-pyrazol-1-yl)-3H-imidazo[4,5-b]pyridin-3-yl)-2-fluoro-2,3-dihydro-1H-inden-1-yl)amino)piperidin-1-yl)prop-2-en-1-one] | 41.8 nM | 227 nM | – | 7.68 nM | 110 nM
3 | C=CC(=O)Nc1ccccc1C(=O)N[C@H]1CCc2cc(-n3c(-c4cccnc4N)nc4ccc(-n5nccn5)nc43)ccc21 [Example 19, (S)-2-acrylamido-N-(5-(2-(2-aminopyridin-3-yl)-5-(2H-1,2,3-triazol-2-yl)-3H-imidazo[4,5-b]pyridin-3-yl)-2,3-dihydro-1H-inden-1-yl)benzamide] | 326 nM | 15.8 nM | 88 nM | 27 nM | –
4 | C=CC(=O)N1CCC12CCC(N[C@H]1CCc3cc(-n4c(-c5cccnc5N)nc5ccc(-n6cccn6)nc54)ccc31)CC2 (stereo partly drawn) [Example 80, 1-(7-{[(1S)-5-[2-(2-aminopyridin-3-yl)-5-(pyrazol-1-yl)imidazo[4,5-b]pyridin-3-yl]-2,3-dihydro-1H-inden-1-yl]amino}-1-azaspiro[3.5]nonan-1-yl)prop-2-en-1-one] | 166 nM | 15.7 nM | 120 nM | 41.7 nM | –
5 | C=CC(=O)N1C[C@H]2C[C@@H](C1)C2N[C@H]1CCc2cc(-n3c(-c4cccnc4N)nc4ccc(-n5cccn5)nc43)ccc21 (single isomer, unassigned) [Example 59, 1-((1R,5S,6*)-6-(((S)-5-(2-(2-aminopyridin-3-yl)-5-(1H-pyrazol-1-yl)-3H-imidazo[4,5-b]pyridin-3-yl)-2,3-dihydro-1H-inden-1-yl)amino)-3-azabicyclo[3.1.1]heptan-3-yl)prop-2-en-1-one] | 648 nM | 44.8 nM | – | 242 nM | 377 nM
6 | C=CC(=O)N1CCC(N[C@H]2CCc3cc(-n4c(-c5cccnc5N)nc5ccc(C6CC6)nc54)ccc32)C(C)C1 (single isomer, unassigned) [Example 230, 1-((3*,4*)-4-(((S)-5-(2-(2-aminopyridin-3-yl)-5-cyclopropyl-3H-imidazo[4,5-b]pyridin-3-yl)-2,3-dihydro-1H-inden-1-yl)amino)-3-methylpiperidin-1-yl)prop-2-en-1-one] | 346 nM | 890 nM | – | 41.9 nM | 600 nM
7 | C=CC(=O)N1CC2CC[C@@H]1CC2N[C@H]1CCc2cc(-n3c(-c4cccnc4N)nc4ccc(-n5cccn5)nc43)ccc21 (single isomer, unassigned) [Example 132, 1-[(1R,4R,5*)-5-{[(1S)-5-[2-(2-aminopyridin-3-yl)-5-(pyrazol-1-yl)imidazo[4,5-b]pyridin-3-yl]-2,3-dihydro-1H-inden-1-yl]amino}-2-azabicyclo[2.2.2]octan-2-yl]prop-2-en-1-one] | 2250 nM | 97.5 nM | – | 326 nM | 1510 nM
8 | C=CC(=O)N1CC2CC[C@H]1CC2N[C@H]1CCc2cc(-n3c(-c4cccnc4N)nc4ccc(-n5cccn5)nc43)ccc21 (single isomer, unassigned) [Example 134, 1-[(1S,4S,5*)-5-{[(1S)-5-[2-(2-aminopyridin-3-yl)-5-(pyrazol-1-yl)imidazo[4,5-b]pyridin-3-yl]-2,3-dihydro-1H-inden-1-yl]amino}-2-azabicyclo[2.2.2]octan-2-yl]prop-2-en-1-one] | 2710 nM | 72.4 nM | – | 232 nM | 1150 nM
9 | C=CC(=O)N1CCC(N[C@H]2CCc3cc(-n4c(-c5cccnc5N)nc5ccc(C6CC6)nc54)ccc32)C(F)C1 (single isomer, unassigned) [Example 176, 1-((3*,4*)-4-(((S)-5-(2-(2-aminopyridin-3-yl)-5-cyclopropyl-3H-imidazo[4,5-b]pyridin-3-yl)-2,3-dihydro-1H-inden-1-yl)amino)-3-fluoropiperidin-1-yl)prop-2-en-1-one] | 484 nM | 967 nM | 433 nM | 37.8 nM | –
10 | C=CC(=O)N1CCC(N[C@H]2CCc3cc(-n4c(-c5cccnc5N)nc5ccc(C6CCC6)nc54)ccc32)CC1 [Example 195, 1-(4-{[(1S)-5-[2-(2-aminopyridin-3-yl)-5-cyclobutylimidazo[4,5-b]pyridin-3-yl]-2,3-dihydro-1H-inden-1-yl]amino}piperidin-1-yl)prop-2-en-1-one] | 80.8 nM | 415 nM | 319 nM | 7.45 nM | –

Continued by falling IC50 [1], values first:

Row | IC50 [1] | IC50 [2] | IC50 ([3]; Homo sapiens, LAPC4, 72 h) | IC50 [4] | IC50 ([3]; 72 h) | Structure (SMILES)
11 | 5880 nM | 102 nM | 1600 nM | 645 nM | – | C=CC(=O)N1CCC(N[C@@H]2c3ccc(-n4c(-c5cccnc5N)nc5ccc(-n6cccn6)nc54)cc3CC2OC)CC1 (single isomer, unassigned) [Example 162, 1-(4-(((1R,2*)-5-(2-(2-aminopyridin-3-yl)-5-(1H-pyrazol-1-yl)-3H-imidazo[4,5-b]pyridin-3-yl)-2-methoxy-2,3-dihydro-1H-inden-1-yl)amino)piperidin-1-yl)prop-2-en-1-one]
12 | 416 nM | 2510 nM | 1090 nM | 72.7 nM | – | C=CC(=O)N1CCN(N[C@@H]2CCc3cc(-n4c(-c5cccnc5N)nc5ccc(C6CC6)nc54)ccc32)CC1 [Example 350]
13 | 198 nM | 18.3 nM | 100 nM | 110 nM | – | C=CC(=O)N1CCC(N(CC2COC2)[C@H]2CCc3cc(-n4c(-c5cccnc5N)nc5ccc(-n6cccn6)nc54)ccc32)CC1 [Example 161, 1-(4-{[(1S)-5-[2-(2-aminopyridin-3-yl)-5-(pyrazol-1-yl)imidazo[4,5-b]pyridin-3-yl]-2,3-dihydro-1H-inden-1-yl](oxetan-3-ylmethyl)amino}piperidin-1-yl)prop-2-en-1-one]
14 | 106 nM | 1350 nM | – | 30.7 nM | 378 nM | C=CC(=O)N1CCC(N[C@@H]2c3ccc(-n4c(-c5cccnc5N)nc5ccc(-n6ccc(F)n6)nc54)cc3CC2F)C[C@H]1C (single isomer, unassigned) [Example 276, 1-((2R,4*)-4-(((1R,2*)-5-(2-(2-aminopyridin-3-yl)-5-(3-fluoro-1H-pyrazol-1-yl)-3H-imidazo[4,5-b]pyridin-3-yl)-2-fluoro-2,3-dihydro-1H-inden-1-yl)amino)-2-methylpiperidin-1-yl)prop-2-en-1-one]
15 | 29.4 nM | 30.3 nM | 99.5 nM | 6.33 nM | – | C=CC(=O)N1CCC(N[C@H]2CCc3cc(-n4c(-c5cccnc5N)nc5c(OC)cc(-n6cccn6)nc54)ccc32)CC1 [Example 337, 1-(4-{[(1S)-5-[2-(2-aminopyridin-3-yl)-7-methoxy-5-(pyrazol-1-yl)imidazo[4,5-b]pyridin-3-yl]-2,3-dihydro-1H-inden-1-yl]amino}piperidin-1-yl)prop-2-en-1-one]
